From patent US8759339B2, “Pyrrolo[2,1-c][1,4]naphthodiazepine linked piperazine compounds and a process for the preparation thereof” (Council of Scientific & Industrial Research, priority 2011, dated 2014)
Where two headings read alike, the source gives them in different places.

How the values were obtained:
[1] = In vitro anticancer activity, MTT assay; type: cell-based; details: kidney cancer cell line; MTT, 48 h continuous drug exposure; read-out: IC50 COS-1
Description: (§1) In vitro biological activity studies were carried out at the pharmacology division, IICT, Hyderabad. The compounds were evaluated for in vitro anticancer activity against eight tumour cell lines derived from […] cancer types (breast, lung, liver, skeletal, kidney, prostrate, small intestine) as shown in Table 2. For each compound, dose response curves for each cell line were measured at a minimum of five concentrations at 10 fold dilutions. A protocol of 48 h continuous drug exposure was used and a MTT assay was used to estimate cell viability or growth. The concentration causing 50% inhibition (IC50) compared with the control was calculated. Some of the compounds have been evaluated for their in vitro cytotoxicity in eight cell lines from seven human cancer types. The results are expressed as IC50 determined relative to that of untreated control cells (Table-2).

[2] = system: COS-1 kidney cancer cell line; assay: In vitro anticancer activity, MTT assay; type: cell-based; details: for IC50: COS-1, range over the listed compounds, exposure period of at least 48 hrs, read-out: IC50 against kidney cancer cell lines
Description: as §1

[3] = system: L-6 skeletal cancer cell line; assay: In vitro anticancer activity, MTT assay; type: cell-based; details: result in words
Description: as §1

L-6 = assay: In vitro anticancer activity, MTT assay; type: cell-based; details: skeletal cancer cell line; MTT, 48 h continuous drug exposure
Description: as §1

[4] = system: IEC-6 small intestine cell line; assay: In vitro anticancer activity, MTT assay; type: cell-based; details: for in-vitro cytotoxicity in small intestine cancer cell line (IEC-6): result in words
Description: as §1

calf thymus DNA (CT-DNA) = assay: Thermal denaturation studies with duplex-form calf thymus DNA; type: binding; details: [PND]/[DNA] molar ratio 1:5, CT-DNA 100 μM, ligand 20 μM, aqueous sodium phosphate buffer pH 7; for ΔTm after incubation at 37° C. for 0 hr: 0 hr at 37° C.; for ΔTm after incubation at 37° C. for 18 hrs: 18 hrs at 37° C.
Description: Compounds have been subjected to thermal denaturation studies with duplex-form calf thymus DNA (CT-DNA) using an modification of a reported procedure (Newman, M. S. Carcinog-compr. Surv. 1976, 1, 203; (b) Hecht, S. S.; Loy, M.; Hoffman, Carcinog-compr. Surv. 1976, 1, 325). Working solutions in aqueous buffer (10 mM NaH2PO4/Na2HPO4, 1 mM Na2EDTA, pH 7.00+0.01) containing CT-DNA (100 μm in phosphate) and the PND (pyrrolo naphtha diazepine) (20 μm) have been prepared by addition of concentrated PND (pyrrolo naphtha diazepine) solutions in DMSO to obtain a fixed [PND]/[DNA] molar ratio of 1:5. The DNA-PND (pyrrolo naphtha diazepine) solutions have been incubated at 37° C. for 0 and 18 h prior to analysis. Samples have been monitored at 260 nm using a Beckman DU-800 spectrophotometer fitted with high performance temperature controller, and heated at 1° C. min in the 40-110° C. range. DNA helix→coil transition temperatures (Tm) have been obtained from the maxima in the d(A260)/dT derivative plots. Drug-induced alterations in DNA melting behavior are given by: ΔTm=Tm(DNA+PND)−Tm(DNA alone), where the Tm value for the PND-free CT-DNA is 69.1±0.01.
The DNA binding activity for these novel substituted piperazine linked pyrrolo naphtho diazepine hybrids has been examined by thermal denaturation studies using calf thymus (CT) DNA. […] The data for some of the compounds are included in Table 1 for comparison.

[5] = system: HEPG2 liver cancer cell line; assay: In vitro anticancer activity, MTT assay; type: cell-based, human; details: for in-vitro cytotoxicity in liver cancer cell line (HEPG2): result in words
Description: as §1

[6] = system: NCIH460 large cell lung cancer cell line; assay: In vitro anticancer activity, MTT assay; type: cell-based, human; details: for IC50: large cell lung cancer cell line, MTT, 48 h continuous drug exposure; for in-vitro cytotoxicity in large cell lung cancer cell line (NCIH460): result in words
Description: as §1

[7] = system: MCF7 breast cancer cell line; assay: In vitro anticancer activity, MTT assay; type: cell-based, human; details: for IC50: breast cancer cell line, MTT, 48 h continuous drug exposure; for in-vitro cytotoxicity in breast cancer cell line (MCF-7): result in words
Description: as §1

[8] = system: A549 lung cancer cell line; assay: In vitro anticancer activity, MTT assay; type: cell-based, human; details: for in-vitro cytotoxicity in lung cancer cell line (A549): result in words
Description: as §1

[9] = system: PC-3 prostrate cancer cell line; assay: In vitro anticancer activity, MTT assay; type: cell-based, human; details: for IC50: prostrate cancer cell line, MTT, 48 h continuous drug exposure; for in-vitro cytotoxicity in prostrate cancer cell line (PC-3): result in words
Description: as §1

[10] = small intestine cell line, MTT, 48 h continuous drug exposure, read-out: IC50 IEC-6
[11] = liver cancer cell line, MTT, 48 h continuous drug exposure, read-out: IC50 HEPG2
[12] = lung cancer cell line, MTT, 48 h continuous drug exposure, read-out: IC50 A549
[13] = IEC-6, range over the listed compounds, exposure period of at least 48 hrs, read-out: IC50 against small intestine cancer cell lines
[14] = IEC-6, small intestine cell line, MTT, 48 h continuous drug exposure, read-out: IC50 IEC-6
[15] = Homo sapiens, HepG2, liver cancer cell line, MTT, 48 h continuous drug exposure, read-out: IC50 HEPG2
[16] = Homo sapiens, HepG2, range over the listed compounds, exposure period of at least 48 hrs, read-out: IC50 against liver cancer cell lines
[17] = Homo sapiens, A549, lung cancer cell line, MTT, 48 h continuous drug exposure, read-out: IC50 A549
[18] = Homo sapiens, A549, range over the listed compounds, exposure period of at least 48 hrs, read-out: IC50 against lung cancer cell lines

Row | SMILES | IC50 [1] | in-vitro cytotoxicity in skeletal cancer cell line (L-6) [3] | IC50 (L-6) | in-vitro cytotoxicity in small intestine cancer cell line (IEC-6) [4] | IC50 [4, 10] | ΔTm after incubation at 37° C. for 0 hr (calf thymus DNA (CT-DNA)) | ΔTm after incubation at 37° C. for 18 hrs (calf thymus DNA (CT-DNA)) | IC50 [5, 11] | in-vitro cytotoxicity in liver cancer cell line (HEPG2) [5] | IC50 [6] | in-vitro cytotoxicity in large cell lung cancer cell line (NCIH460) [6] | IC50 [7] | in-vitro cytotoxicity in breast cancer cell line (MCF-7) [7] | IC50 [8, 12] | in-vitro cytotoxicity in lung cancer cell line (A549) [8] | IC50 [9] | in-vitro cytotoxicity in prostrate cancer cell line (PC-3) [9] | IC50 [2] | IC50 [4, 13] | IC50 [4, 14] | further results
1 | COc1cc2cc3c(cc2cc1OCCN1CCN(c2ncccn2)CC1)N=C[C@@H]1CCCN1C3=O [13a, 8-Methoxy-9-(2-[4-(2-pyrimidinyl)piperazino]ethoxy)-(13aS)-1,2,3,13a-tetrahydro-5H-pyrrolo[2,1-c][1,4]naphthodiazepin-5-one] | 1870 nM | exhibiting in-vitro cytotoxicity | 610 nM | exhibiting in-vitro cytotoxicity | 20 nM | 5.0 °C | 6.5 °C | 40 nM | exhibiting in-vitro cytotoxicity | 260 nM | exhibiting in-vitro cytotoxicity | 40 nM | exhibiting in-vitro cytotoxicity | 860 nM | exhibiting in-vitro cytotoxicity | 80 nM | exhibiting in-vitro cytotoxicity | – | – | – | in-vitro cytotoxicity in kidney cancer cell line (COS-1) ([2]; result in words): exhibiting in-vitro cytotoxicity
2 | COc1cc2cc3c(cc2cc1OCCN1CCN(c2ncccn2)CC1)C(=O)N1CCC[C@H]1C=N3 [24a, 9-Methoxy-8-(2-[4-(2-pyrimidinyl)piperazino]ethoxy)-(13aS)-1,2,3,13a-tetrahydro-5H-pyrrolo[2,1-c][1,4]naphthodiazepin-5-one] | – | exhibiting in-vitro cytotoxicity | 2210 nM | exhibiting in-vitro cytotoxicity | – | 4.9 °C | 6.5 °C | – | exhibiting in-vitro cytotoxicity | – | exhibiting in-vitro cytotoxicity | – | exhibiting in-vitro cytotoxicity | – | exhibiting in-vitro cytotoxicity | – | exhibiting in-vitro cytotoxicity | 800 to 4320 nM | 10 to 5840 nM | 200 nM | IC50 [5, 15]: 1040 nM; IC50 [5, 16]: 20 to 7320 nM; IC50 ([6]; Homo sapiens, NCI-H460): 2 nM; IC50 ([7]; Homo sapiens, MCF7): 1970 nM; IC50 [8, 17]: 11900 nM; IC50 [8, 18]: 20 to 11900 nM; IC50 ([9]; Homo sapiens): 10 nM
3 | COc1cc2c(cc1O)N=CC1CCCN1C2=O (stereo not shown) [DC-81, reference compound] | 32900 nM | – | 27600 nM | – | 15400 nM | 0.3 °C | 0.7 °C | 5270 nM | – | 8930 nM | – | 12600 nM | – | 17500 nM | – | 14200 nM | – | – | – | – | –
4 | COc1cc2cc3c(cc2cc1OCCN1CCN(C(C)=O)CC1)N=C[C@@H]1CCCN1C3=O [5a, 8-Methoxy-9-[2-(4-acetylpiperazino)ethoxy]-(13aS)-1,2,3,13a-tetrahydro-5H-pyrrolo[2,1-c][1,4]naphthodiazepin-5-one] | – | exhibiting in-vitro cytotoxicity | 2660 nM | – | – | 5.5 °C | 7.1 °C | 7320 nM | exhibiting in-vitro cytotoxicity | 1680 nM | exhibiting in-vitro cytotoxicity | 2880 nM | exhibiting in-vitro cytotoxicity | 660 nM | exhibiting in-vitro cytotoxicity | 13500 nM | exhibiting in-vitro cytotoxicity | – | – | – | –
5 | COc1cc2cc3c(cc2cc1OCCN1CCN(c2ccc(F)cc2)CC1)C(=O)N1CCC[C@H]1C=N3 [20a, 9-Methoxy-8-(2-[4-(4-fluorophenyl)piperazino]ethoxy)-(13aS)-1,2,3,13a-tetrahydro-5H-pyrrolo[2,1-c][1,4]naphthodiazepin-5-one] | – | exhibiting in-vitro cytotoxicity | 6360 nM | exhibiting in-vitro cytotoxicity | – | 5.9 °C | 7.0 °C | – | exhibiting in-vitro cytotoxicity | – | exhibiting in-vitro cytotoxicity | – | exhibiting in-vitro cytotoxicity | – | exhibiting in-vitro cytotoxicity | – | exhibiting in-vitro cytotoxicity | 800 to 4320 nM | 10 to 5840 nM | 5840 nM | IC50 [5, 15]: 4030 nM; IC50 [5, 16]: 20 to 7320 nM; IC50 ([6]; Homo sapiens, NCI-H460): 990 nM; IC50 ([7]; Homo sapiens, MCF7): 3990 nM; IC50 [8, 17]: 10600 nM; IC50 [8, 18]: 20 to 11900 nM; IC50 ([9]; Homo sapiens): 4370 nM
